Measured values reported in patent US20110040170A1, “ENDOSCOPIC IMAGING PHOTODYNAMIC THERAPY SYSTEM AND METHODS OF USE” (YEDA RESEARCH AND DEVELOPMENT CO., LTD., priority 2008, published 2011).
Values joined by “and” are separate entries in the source; they are usually repeats but may differ in a detail not shown here. Equal entries are not always repeated. “Also recorded” adds a separate entry of the source.

How the values were obtained:
uterus = assay: Histological analysis of post-PDT uteri for long-term damage; type: in vivo, Wistar rats
Method: (viii) Histology. Following animal sacrifice, the abdomen was surgically opened, the uterus was tied-off at the cervix, removed and placed in Carnoy's fixative (6:3:1 ethanol, chloroform and acetic acid, by vol.), or Tris-buffered Zn fixative (2.8 mM calcium acetate, 22.8 mM zinc acetate, and 36.7 mM zinc chloride in 0.1M Tris buffer, pH 7.4) for 48-72 h. Fixed tissue samples were placed in 70% ethanol, paraffin embedded and slides were prepared. Slides were stained with hematoxylin and eosin (H&E) Immunohistochemical staining of the specific cell markers was done using the following antibodies: sheep anti-von Willebrand Factor (vWF)] (Serotec, Oxford, UK), mouse anti-pancytokeratin (clone AE1/AE3, Zymed, San-Francisco, USA) and mouse anti-human smooth muscle actin (SMA) (a SMC marker) (clone 1A4, Serotec, Oxford, UK).
Following verification of the functional integrity of post-PDT rat uteri, histological analysis was conducted in order to identify possible long-term damage resulting from the treatment. For this purpose, uteri in post-PDT and control manipulated rats were examined approximately 10 days after parturition (17-18 days after treatment). The respective uteri were stained by standard H&E (FIGS. 8B and 8F) as well as by anti-SMA antibody (a SMC marker, indicative of uterine wall integrity) (FIGS. 8C and 8G), anti-pan-cytokeratin antibody (an epithelial cell marker, indicative of endometrial integrity and absence of adhesions) (FIGS. 8D and 8H) and for vWF factor (an endothelial cell marker, illustrating blood vessel integrity) (FIGS. 8E and 8I). Uteri featured mild to moderate organizing hemorrhages in the endometrium and mesometrium, typical of post-gravid uteri (uteri after parturition). The only type of lesion found was the presence of a low number of hemosiderin-laden macrophages (siderophages) in the endometrium (where such a presence is normal) and in the mesometrium. This finding (siderophages) was highest in the DC uterus and milder in the post PDT uterus.

feto-placental unit [1] = assay: Histological analysis of feto-placental units and adjacent uterus after in utero PDT; type: in vivo, Wistar rats; details: E16
Method: (iv) In vivo PDT protocol. A pregnant rat (E14) was anesthetized by isoflurane inhalation using the IMPAC6 system (VetEquip Inc., Pleasanton, Calif., USA) and placed on its back; the lower abdomen was shaved, washed with 70% ethanol and draped with sterile gauze. A midline incision (approximately 2 cm in length) in the lower abdomen was performed by cutting the skin and abdominal-muscle layers separately. Using round forceps, the uterus was gently drawn out from the abdominal cavity and placed on the gauze. The exposed uterus was continuously irrigated with sterile 0.9% NaCl solution during the procedure (for layout, see FIGS. 5A, 5B). One embryo was randomly selected for treatment and positioned with the placenta facing up. The laser beam was then directed to the exposed placental pole and the beam positioned for subsequent therapeutic illumination (6 mm light spot diameter) using the built-in visible (630 nm, 3 mW) aiming beam. No shielding of neighboring embryos was required. The photosensitizer PMRDA (50 μg/30 μl sterile saline) was delivered by trans-uterine injection (30G, 0.3 ml, insulin syringe) into the placenta. Following a drug/light time interval (DLTI) of 120 sec, illumination (100 mW/cm^2) was delivered (300 sec) to the placenta in a trans-uterine manner from above, perpendicular to the uterus (FIG. 5A). Upon completion of the PDT protocol, the uterus was eased back into the abdominal cavity. The abdominal facia was sutured using sterile 4-0 braided silk thread and the skin was clipped using 9 mm surgical clips. Anesthesia was discontinued and the rat was placed in a cage and closely monitored for at least 48 h. Animals received analgesia (Oxycod®, 6 ml/l) in their drinking water for at least 48 h. Controls: Dark control (DC): placental administration of photosensitizer without illumination. Light control (LC): placental sham injection of sterile vehicle (saline), followed by illumination with the respective light dose. Untreated control (UN): all untreated fetoplacental units in a treated rat.
(viii) Histology. […]

[2] = rat
Text: (vi) Post PDT fertility assessment. Treated rats were allowed to reach parturition and pup weaning (P21). Fertile males were then introduced into the cages and rats were allowed to mate until pregnancy could be verified by daily vaginal smears and palpation. Pregnancy in both uterine horns was verified by magnetic resonance imaging (MRI) and/or by animal sacrifice and macroscopic examination.

feto-placental unit [3] = assay: In vivo placental PDT of a single feto-placental unit in the pregnant rat
Method: Materials and Methods (i) Animals. Pregnant 10-week old female Wistar rats (litter sizes of 10±2) (Harlan Laboratories, Rehovot, Israel) were delivered to the lab on embryonic day 7-12 (E7-E12) and allowed acclimatization of at least 48 h. All animal protocols were approved by the Weizmann Institutional Animal Care and Use Committee (IACUC).
(ii) Photosensitizer. Palladium 3^1-oxo-15 -methoxycarbonylmethylrhodobacterio-chlorin-13^1,17^3-di(2-N2-dimethylaminoethyl) amide (PMRDA), a water-soluble positively charged Pd-bacteriochlorophyll derivative disclosed in WO 2005/120573, was either synthesized in the inventor's laboratory by known methods or kindly provided by Steba Laboratories Ltd. (Israel), and used as a photosensitizer. The PMRDA was obtained as powder and kept under Argon (Ar) at −20° C. in the dark. Thereafter it was dissolved in methanol (MeOH) and, following spectrophotometric determination of concentration, was divided into aliquots, dried under Ar and kept at −20° C. in the dark until use.
(iii) Light source. A 1W 755 nm laser (CeramOptec, Bonn, Germany) was used. Light was delivered via a diffuser tipped optic fiber (Medlight S.A., Ecublens, Switzerland).
(iv) In vivo PDT protocol. A pregnant rat (E14) was anesthetized by isoflurane inhalation using the IMPAC6 system (VetEquip Inc., Pleasanton, Calif., USA) and placed on its back; the lower abdomen was shaved, washed with 70% ethanol and draped with sterile gauze. A midline incision (approximately 2 cm in length) in the lower abdomen was performed by cutting the skin and abdominal-muscle layers separately. Using round forceps, the uterus was gently drawn out from the abdominal cavity and placed on the gauze. The exposed uterus was continuously irrigated with sterile 0.9% NaCl solution during the procedure (for layout, see FIGS. 5A, 5B). One embryo was randomly selected for treatment and positioned with the placenta facing up. […] Anesthesia was discontinued and the rat was placed in a cage and closely monitored for at least 48 h. […]

uterine horn = details: cited from earlier work
extrauterine pregnancy = details: selected patients (mass less than 4 cm, no fetal heart beat, low β-hCG); cited from earlier work
[4] = subsequent fertility after 5-ALA PDT

Molecule: Palladium 3^1-oxo-15 -methoxycarbonylmethylrhodobacterio-chlorin-13^1,17^3-di(2-N2-dimethylaminoethyl) amide [PMRDA]
- siderophages in endometrium and mesometrium, post PDT uterus (uterus; PMRDA with illumination): milder
- siderophages in endometrium and mesometrium, DC uterus (uterus; PMRDA without illumination): highest
- necrosis / pathological findings in post-PDT uteri (uterus; uteri after parturition, H&E, SMA, pan-cytokeratin, vWF staining): No necrotic areas were found; also recorded: no pathological findings
- placental necrosis, share of placental mass involved (feto-placental unit [1]; post-PMRDA-PDT placenta): approximately 70%
- histological state of the embryo (feto-placental unit [1]; post-PMRDA-PDT): fully necrotic embryo
- state of the uterus adjacent to the treated placenta (feto-placental unit [1]; post-PMRDA-PDT): appeared viable
- fertility following local in vivo placental PDT [2]: fertility of the rats is preserved
- ability to conceive after PDT, parturition and re-mating ([2]; in vivo): all six rats pregnant
- litter sizes of second pregnancy ([2]; in vivo): 6-11
- parturition of the remaining litter after treatment ([2]; in vivo): All six rats achieved normal parturition
- pups delivered at parturition after treatment ([2]; in vivo): 6 to 11 pups
- pregnancy termination (embryo death rate) following PMRDA-PDT (feto-placental unit [3]; 50 μg/30 μl intra-placental injection at E14, DLTI 120 sec, 755 nm 100 mW/cm^2 for 300 sec, assessed E16, 11/14 embryos): ~80% and 78.6%
- embryo mortality rate, dark control (DC) (feto-placental unit [3]; placental administration of photosensitizer without illumination, E14, assessed E16, 3/8 embryos): 37.5%
- morbidity to the treated pregnant rat (feto-placental unit [3]; rat, in vivo): did not result in noticeable morbidity

Molecule: NCC(=O)CCC(=O)O [5-ALA, 5-aminolevulinic acid]
- treated animals that did not conceive following PDT (uterine horn; 5-ALA administered E10, examined E17): one third
- fewer implanted embryos in the treated horn (uterine horn; [4]): ~28%
- treated animals that developed pregnancies in the treated horn subsequently (uterine horn; [4]): 66.2%
- pregnancy outcome in the treated uterine horn (uterine horn; systemic 5-ALA, whole horn illuminated): loss of all embryos in the treated uterine horn; also recorded: termination of all pregnancies in the treated horn

Molecule: CN(Cc1cnc2nc(N)nc(N)c2n1)c1ccc(C(=O)N[C@@H](CCC(=O)O)C(=O)O)cc1 [methotrexate, Methotrexate]
- success rate of medical therapy of EUP (extrauterine pregnancy): 70-95%
